Measured values as given in US20030124616A1, “Homocysteinylated transthyretin” (priority 2001, published 2003).

How the values were obtained:
[1] = molecular target: T1, albumin (Homo sapiens, UniProt P02768); assay: Binding of 35S-L-homocysteine and 35S-L-cysteine to plasma proteins (SDS-PAGE, phosphorimaging); conditions: 500 μmol/L, plasma diluted 1:1 with TES buffer
T1 construct: from tissue; host or cells: human plasma
Description: (§1) ^35S-L-homocysteine (500 μmol/L final concentration) was added to either human plasma fibronectin (1 mg/mL, 0.05 mol/L TES buffer, pH 7.4) or human plasma diluted 1:1 with 0.05 mol/L TES buffer, pH 7.4 and incubated under aerobic conditions for 5 hours at 37° C. with continuous shaking. Separate samples of human plasma and fibronectin were incubated with ^35S-L-cysteine (1,000 Ci/mmol) (New England Nuclear, Boston, Mass.) which was first diluted with cold L-cysteine (in 1 mol/L TES buffer, pH 7.4) to obtain a specific activity equal to that of the synthesized ^35S-L-homocysteine. The final concentrations of L-cysteine and TES in the reaction mixture was 500 μmol/L and 0.05 mol/L respectively and the incubation was carried out as described above for L-homocysteine. The bound radioactive homocysteine was detected by SDS-PAGE of the samples followed by phosphorimage analysis (Molecular Dynamics Inc., Sunnyvale, Calif.).
(§2) Samples were combined with SDS-PAGE sample buffer (62.5 mmol/L Tris-HCl, pH 6.8, 2% SDS, 10% glycerol, 0.02% bromophenol blue) and aliquots of some samples were reduced with 2-mercaptoethanol and heated to 100° C. for 5 minutes. The samples were loaded onto 4-20% precast gradient gels (Z Axis, Hudson, Ohio) and electrophoresed using the method of Laemmli. […]

[2] = test system: human plasma fibronectin; assay: Binding of 35S-L-homocysteine and 35S-L-cysteine to fibronectin (SDS-PAGE, phosphorimaging); conditions: 500 μmol/L, 5 hours at 37° C.
Description: as §1, §2

[3] = molecular target: T2, human transthyretin (TTR) (Homo sapiens, UniProt P02766); assay: Radiolabeling and SDS-PAGE of human plasma and purified transthyretin with 35S-L-homocysteine; assay type: binding; conditions: 0.5 mM, 5 h, label lost with β-mercaptoethanol
T2 construct: Plasma TTR is a 127 amino acid protein containing a single cysteine residue at position 10; purchased Sigma
Description: ^35S-L-Homocysteine was incubated with 50% human plasma in 0.05 M TES buffer (pH 7.4), or with purified human transthyretin (1 mg/ml in water) for 5 h at 37 C. Protein was then precipitated with 1.5 M perchloric acid and washed three times with 1.5 M perchloric acid. The final pellet was solubilized in SDS-PAGE sample buffer with and without reduction by β-mercaptoethanol. After treatment at 100 C. for 10 min, aliquots were subjected to analysis by SDS-PAGE using a 10% gel. The gel was stained with Coomassie blue, dried and subjected to phosphorimaging to detect ^35S- labeled proteins.
In FIG. 1, ^35S-L-Homocysteine (0.5 mM) was incubated with 50% human plasma in 0.05M TES buffer (pH 7.4) and with commercially available human transthyretin from Sigma (1 mg/mL in water) for 5 hours at […]. Following the incubation, protein was precipitated with 1.5M perchloric acid and solubilized with SDS-PAGE sample buffer. Aliquots were subjected to analysis by SDS-PAGE using a 10% gel without (see lanes 1 and 2 in FIG. 1) and with reduction by β-mercaptoethanol followed by heating at 100° C. for 10 minutes (see lanes 3 and 4 in FIG. 1). The gel was strained with Coomassie blue, dried and subjected to phosphorimaging to detect ^35S-labeled proteins. […]

[4] = test system: human plasma fibronectin; assay: Stoichiometry of 35S-L-homocysteine binding to fibronectin (scintillation counting)
Description: The human plasma fibronectin purified by affinity chromatography described above was used in these studies. Purity was assessed by SDS-PAGE as described below. Purified fibronectin (200 μg/mL) was incubated with various concentrations (up to 500 μmol/L) of ^35S-L-homocysteine for up to 10 hours at 37° C. Unbound homocysteine was removed by precipitating the fibronectin with 5% trichloroacetic acid containing 0.5% tannic acid using transferrin as a carrier protein. The precipitated fibronectin was washed 3 times with the trichloroacetic acid/tannic acid, resuspended in 0.1 N NaOH and an aliquot subjected to scintillation counting.

T1 sequence (P02768 25-609): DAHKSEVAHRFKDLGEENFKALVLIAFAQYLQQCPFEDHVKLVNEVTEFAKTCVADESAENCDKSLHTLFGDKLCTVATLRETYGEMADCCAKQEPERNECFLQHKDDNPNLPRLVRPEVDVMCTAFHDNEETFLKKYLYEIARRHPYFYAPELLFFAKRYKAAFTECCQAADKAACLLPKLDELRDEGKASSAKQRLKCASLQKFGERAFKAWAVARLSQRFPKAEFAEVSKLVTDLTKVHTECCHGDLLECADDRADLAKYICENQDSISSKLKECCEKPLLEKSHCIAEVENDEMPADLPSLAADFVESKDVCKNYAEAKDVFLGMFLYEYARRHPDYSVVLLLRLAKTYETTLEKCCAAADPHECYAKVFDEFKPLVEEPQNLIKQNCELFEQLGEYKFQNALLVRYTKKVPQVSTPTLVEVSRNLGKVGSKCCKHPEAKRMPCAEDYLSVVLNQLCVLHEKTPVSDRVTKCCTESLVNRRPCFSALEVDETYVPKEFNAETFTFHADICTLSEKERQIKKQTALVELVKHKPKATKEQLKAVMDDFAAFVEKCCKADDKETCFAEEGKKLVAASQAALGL

binding to fibronectin in plasma or purified fibronectin [2] | time for binding to fibronectin to reach equilibrium ([4]; 500 μmol/L homocysteine) [h] | maximum homocysteine bound per mole of dimeric fibronectin ([4]; up to 500 μmol/L homocysteine, 37° C.) [mol] | Structure (SMILES) | binding to albumin in human plasma [1] | reaction with TTR (labeling of TTR dimer and tetramer) [3]
did not bind |  |  | N[C@@H](CS)C(=O)O [L-cysteine] | bound to albumin | 
bound via a disulfide linkage | ≤ 5 | 5 | N[C@@H](CCS)C(=O)O [L-homocysteine] | most of the radioactivity in the plasma was associated with albumin | readily reacts with the Cys^10 position of TTR
